In patent US20260364184A1, “COMPOUND BASED ON OXOISOINDOLINYL-SUBSTITUTED TETRAHYDROPYRIMIDINE-DIONE AND USE THEREOF” (GLUETACS THERAPEUTICS (SHANGHAI) CO., LTD., priority 2023, published 2026):

Legend:
WEE1 = target: T1, WEE1 (Homo sapiens, UniProt P30291+Q96SW2); test: Western blot degradation of WEE1; assay type: cell-based; conditions: hPBMC Cell; 24 hours
T1 construct: expression of target proteins in cells; endogenous in cells
Protocol: (§1) Conventional Western blot assay was performed to evaluate the effects of the compounds of the present disclosure on the expression of target proteins in cells.
(§2) (1) Cell Seeding and Protein Harvesting: The selected cells were processed according to the cell seeding procedure and protein harvesting procedure in Table II-2.
(§3) (2) To the collected supernatant, 5×SDS sample loading buffer was added, followed by denaturation at 95 °C for 5 minutes. The denatured samples were then separated by SDS-PAGE electrophoresis on a polyacrylamide gel. Proteins were transferred to a nitrocellulose membrane (0.45 μm NC membrane), blocked with blocking buffer at room temperature for 1 hour, and subjected to antibody incubation and development procedures according to the antibody manufacturer's instructions (Cell Signaling Technology).
(§4) Half-Maximal Degradation Concentration value (the drug concentration required for degrading proteins by 50%, abbreviated as DC50) reads method: comparing the grayscale values of Western blot bands from drug-treated samples with those from blank DMSO-treated controls, and identifying the drug concentration range at which the grayscale value is half that of the DMSO-treated control bands.
(§5) DC50 values can be calculated using ImageJ software to measure grayscale values of Western blot bands from drug-treated samples. The concentration-response curve is fitted to estimate the drug concentration corresponding to half the grayscale value.
(§6) Target protein remaining (%) refers to the percentage of target protein remaining in cells after treatment with protein degrader compounds.
(§7) Calculation method for target protein remaining (%): Use ImageJ software to measure grayscale values of Western blot bands from drug (protein degrader)-treated samples. The grayscale value of drug-treated bands is divided by that of internal control protein bands, and the resulting quotient is normalized to obtain the relative percentage of remaining target protein after protein degrader treatment.
(§8) Target protein degradation rate (%)=1−target protein remaining (%).

IKZF2 = target: T2, IKZF2 (Homo sapiens, UniProt Q96SW2+Q9UKS7); test: Western blot degradation of IKZF2; assay type: cell-based; conditions: hPBMC Cell; 24 hours
T2 construct: expression of target proteins in cells; endogenous in cells
T2 sequence (Q9UKS7 whole entry): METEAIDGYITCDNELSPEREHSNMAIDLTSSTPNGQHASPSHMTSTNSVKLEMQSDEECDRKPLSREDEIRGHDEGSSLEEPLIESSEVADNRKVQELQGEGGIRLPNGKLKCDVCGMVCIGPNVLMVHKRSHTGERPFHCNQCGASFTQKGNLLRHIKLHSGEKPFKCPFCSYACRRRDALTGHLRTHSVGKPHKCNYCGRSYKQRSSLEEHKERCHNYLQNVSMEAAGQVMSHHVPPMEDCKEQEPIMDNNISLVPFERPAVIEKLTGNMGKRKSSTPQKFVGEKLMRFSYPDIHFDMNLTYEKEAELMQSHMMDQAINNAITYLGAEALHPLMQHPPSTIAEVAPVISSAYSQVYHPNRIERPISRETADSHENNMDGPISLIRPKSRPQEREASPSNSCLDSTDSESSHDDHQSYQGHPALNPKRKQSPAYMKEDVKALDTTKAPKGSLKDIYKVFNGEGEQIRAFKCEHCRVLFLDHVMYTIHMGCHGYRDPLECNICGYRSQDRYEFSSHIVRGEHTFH
T2 sequence (Q96SW2 whole entry): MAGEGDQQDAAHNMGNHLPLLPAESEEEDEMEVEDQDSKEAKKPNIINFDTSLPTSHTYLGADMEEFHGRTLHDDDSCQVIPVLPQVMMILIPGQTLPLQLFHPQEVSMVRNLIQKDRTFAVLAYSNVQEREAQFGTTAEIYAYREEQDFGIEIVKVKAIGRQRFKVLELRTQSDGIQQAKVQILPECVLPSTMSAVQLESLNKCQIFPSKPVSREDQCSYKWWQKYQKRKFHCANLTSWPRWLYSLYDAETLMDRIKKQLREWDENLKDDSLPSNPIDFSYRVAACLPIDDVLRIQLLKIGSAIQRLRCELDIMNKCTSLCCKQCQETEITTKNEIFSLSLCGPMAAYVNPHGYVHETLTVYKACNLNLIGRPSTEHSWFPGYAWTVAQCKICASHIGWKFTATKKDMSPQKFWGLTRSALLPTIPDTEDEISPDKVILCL
T2 sequence (Q16531 whole entry partner): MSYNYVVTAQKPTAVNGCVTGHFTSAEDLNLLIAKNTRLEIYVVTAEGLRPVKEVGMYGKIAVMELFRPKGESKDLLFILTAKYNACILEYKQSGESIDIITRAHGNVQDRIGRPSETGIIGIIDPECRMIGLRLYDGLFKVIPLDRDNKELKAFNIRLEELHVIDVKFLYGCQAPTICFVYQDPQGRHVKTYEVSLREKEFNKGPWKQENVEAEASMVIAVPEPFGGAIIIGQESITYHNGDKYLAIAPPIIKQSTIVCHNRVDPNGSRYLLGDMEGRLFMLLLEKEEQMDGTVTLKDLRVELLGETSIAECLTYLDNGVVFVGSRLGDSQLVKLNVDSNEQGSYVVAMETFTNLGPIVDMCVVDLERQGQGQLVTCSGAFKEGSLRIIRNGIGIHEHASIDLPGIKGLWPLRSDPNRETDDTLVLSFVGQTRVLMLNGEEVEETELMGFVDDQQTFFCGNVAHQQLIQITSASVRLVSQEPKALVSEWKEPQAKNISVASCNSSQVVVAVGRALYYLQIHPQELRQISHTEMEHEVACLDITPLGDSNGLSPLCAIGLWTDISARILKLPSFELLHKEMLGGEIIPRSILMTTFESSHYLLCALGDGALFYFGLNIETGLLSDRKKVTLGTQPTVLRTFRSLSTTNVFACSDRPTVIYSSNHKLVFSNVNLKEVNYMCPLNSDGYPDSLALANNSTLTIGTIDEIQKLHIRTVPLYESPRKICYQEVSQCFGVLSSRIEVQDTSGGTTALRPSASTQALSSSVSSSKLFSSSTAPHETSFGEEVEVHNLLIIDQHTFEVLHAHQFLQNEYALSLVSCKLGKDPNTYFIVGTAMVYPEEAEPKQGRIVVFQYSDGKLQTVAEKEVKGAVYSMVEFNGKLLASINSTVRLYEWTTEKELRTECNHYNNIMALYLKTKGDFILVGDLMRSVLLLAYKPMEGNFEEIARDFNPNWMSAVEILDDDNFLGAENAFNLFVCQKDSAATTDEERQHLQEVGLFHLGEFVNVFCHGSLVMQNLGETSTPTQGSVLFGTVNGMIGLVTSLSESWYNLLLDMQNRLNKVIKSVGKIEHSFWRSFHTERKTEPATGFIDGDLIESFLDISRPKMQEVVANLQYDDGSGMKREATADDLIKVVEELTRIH
Protocol: as §1, §2, §3, §4, §5, §6, §7, §8

GSPT1 = target: T3, GSPT1 (Homo sapiens, UniProt P15170+Q96SW2); test: Western blot degradation of GSPT1; assay type: cell-based; conditions: hPBMC Cell; 24 hours
T3 construct: expression of target proteins in cells; endogenous in cells
T3 sequence (P15170 whole entry): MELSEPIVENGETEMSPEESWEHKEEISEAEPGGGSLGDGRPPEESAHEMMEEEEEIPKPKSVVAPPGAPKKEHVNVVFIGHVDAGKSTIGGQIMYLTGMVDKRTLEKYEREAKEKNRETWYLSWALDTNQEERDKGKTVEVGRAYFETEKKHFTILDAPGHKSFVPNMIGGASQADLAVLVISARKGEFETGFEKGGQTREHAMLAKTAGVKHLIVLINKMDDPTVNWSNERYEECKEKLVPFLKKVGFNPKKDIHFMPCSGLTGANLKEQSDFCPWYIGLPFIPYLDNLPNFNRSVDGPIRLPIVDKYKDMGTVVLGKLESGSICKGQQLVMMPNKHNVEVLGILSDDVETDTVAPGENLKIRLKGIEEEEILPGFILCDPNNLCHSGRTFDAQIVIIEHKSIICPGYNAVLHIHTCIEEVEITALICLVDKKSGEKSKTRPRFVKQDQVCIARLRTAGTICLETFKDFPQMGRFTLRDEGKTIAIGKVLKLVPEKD
T3 sequence (Q96SW2 whole entry): as the sequence (Q96SW2 whole entry) above
T3 sequence (Q16531 whole entry partner): as the sequence (Q16531 whole entry partner) above
Protocol: as §1, §2, §3, §4, §5, §6, §7, §8

[1] = target: T4, human Cereblon WT GST-tagged protein (CRBN) (Homo sapiens, UniProt Q96SW2); test: CRBN binding by HTRF (Cereblon binding kit)
T4 construct: purchased CISBIO 64BDCRBNPEH
T4 sequence (Q96SW2 whole entry): as the sequence (Q96SW2 whole entry) above
Outline: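 GST-tagged human Cereblon WT was incubated 3 h at room temperature with compound, thalidomide-Re tracer and Eu anti-GST antibody. Final compound concentrations were 10 to 0.00064 µM (7 points) or 2 and 0.5 µM. Inhibition rate was calculated from HTRF 665/620 nm ratios versus solvent and blank controls.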

IKZF3 = target: T5, IKZF3 (Homo sapiens, UniProt Q96SW2+Q9UKT9); test: Western blot degradation of IKZF3; assay type: cell-based; conditions: hPBMC Cell; 24 hours
T5 construct: expression of target proteins in cells; endogenous in cells
T5 sequence (Q9UKT9 whole entry): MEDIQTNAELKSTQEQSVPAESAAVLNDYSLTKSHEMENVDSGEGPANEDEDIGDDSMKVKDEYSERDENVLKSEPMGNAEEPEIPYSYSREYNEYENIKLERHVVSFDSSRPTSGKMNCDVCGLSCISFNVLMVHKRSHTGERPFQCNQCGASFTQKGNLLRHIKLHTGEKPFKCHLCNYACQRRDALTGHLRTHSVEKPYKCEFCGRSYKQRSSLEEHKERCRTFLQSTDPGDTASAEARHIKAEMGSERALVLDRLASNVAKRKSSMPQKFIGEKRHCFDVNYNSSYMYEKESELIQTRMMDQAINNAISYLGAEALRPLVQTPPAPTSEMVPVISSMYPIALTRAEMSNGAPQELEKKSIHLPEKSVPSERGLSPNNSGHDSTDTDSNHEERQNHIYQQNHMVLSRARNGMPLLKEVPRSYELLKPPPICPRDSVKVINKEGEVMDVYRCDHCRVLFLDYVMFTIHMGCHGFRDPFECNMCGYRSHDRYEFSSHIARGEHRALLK
T5 sequence (Q96SW2 whole entry): as the sequence (Q96SW2 whole entry) above
T5 sequence (Q16531 whole entry partner): as the sequence (Q16531 whole entry partner) above
Protocol: as §1, §2, §3, §4, §5, §6, §7, §8

IKZF1 = target: T6, IKZF1 (Homo sapiens, UniProt Q13422+Q96SW2); test: Western blot degradation of IKZF1; assay type: cell-based; conditions: hPBMC Cell; 24 hours
T6 construct: expression of target proteins in cells; endogenous in cells
T6 sequence (Q13422 whole entry): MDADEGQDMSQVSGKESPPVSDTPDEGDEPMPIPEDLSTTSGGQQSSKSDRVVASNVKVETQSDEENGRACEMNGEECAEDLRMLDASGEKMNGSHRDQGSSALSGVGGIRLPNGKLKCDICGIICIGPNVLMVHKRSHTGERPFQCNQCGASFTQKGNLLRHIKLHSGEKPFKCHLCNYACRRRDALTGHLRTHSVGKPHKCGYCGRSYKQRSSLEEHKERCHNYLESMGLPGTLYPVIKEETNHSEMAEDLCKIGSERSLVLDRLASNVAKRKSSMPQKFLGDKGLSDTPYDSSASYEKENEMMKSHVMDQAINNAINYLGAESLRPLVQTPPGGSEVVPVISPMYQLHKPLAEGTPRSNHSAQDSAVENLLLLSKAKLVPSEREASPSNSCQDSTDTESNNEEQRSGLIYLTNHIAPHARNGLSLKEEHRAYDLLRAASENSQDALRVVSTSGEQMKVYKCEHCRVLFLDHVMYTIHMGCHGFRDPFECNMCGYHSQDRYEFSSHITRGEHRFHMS
T6 sequence (Q96SW2 whole entry): as the sequence (Q96SW2 whole entry) above
T6 sequence (Q16531 whole entry partner): as the sequence (Q16531 whole entry partner) above
Protocol: as §1, §2, §3, §4, §5, §6, §7, §8

CK1α = target: T7, CK1α (Homo sapiens, UniProt P48729+Q96SW2); test: Western blot degradation of CK1α; assay type: cell-based; conditions: hPBMC Cell; 24 hours
T7 construct: expression of target proteins in cells; endogenous in cells
T7 sequence (P48729 whole entry): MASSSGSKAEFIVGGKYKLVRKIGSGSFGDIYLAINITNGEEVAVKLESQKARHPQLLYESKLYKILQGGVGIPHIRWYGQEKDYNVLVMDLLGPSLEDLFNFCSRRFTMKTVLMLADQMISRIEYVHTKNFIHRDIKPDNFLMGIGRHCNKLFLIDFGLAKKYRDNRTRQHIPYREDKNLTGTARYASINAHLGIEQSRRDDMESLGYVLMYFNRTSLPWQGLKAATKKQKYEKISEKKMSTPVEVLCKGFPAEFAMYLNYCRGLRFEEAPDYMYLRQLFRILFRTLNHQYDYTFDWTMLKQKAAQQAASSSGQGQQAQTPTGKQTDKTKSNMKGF
T7 sequence (Q96SW2 whole entry): as the sequence (Q96SW2 whole entry) above
T7 sequence (Q16531 whole entry partner): as the sequence (Q16531 whole entry partner) above
Protocol: as §1, §2, §3, §4, §5, §6, §7, §8

Degradation of substrate protein WEE1 (substrate protein remaining %) (WEE1) | Degradation of substrate protein GSPT1 (substrate protein remaining %) (GSPT1) | IC50 [1] [nM] | SMILES | Degradation of substrate protein IKZF2 (substrate protein remaining %) (IKZF2) | Degradation of substrate protein IKZF3 (substrate protein remaining %) (IKZF3) | Degradation of substrate protein IKZF1 (substrate protein remaining %) (IKZF1) | Degradation of substrate protein CK1α (substrate protein remaining %) (CK1α)
A (0%≤substrate protein remaining %≤80%) | A (0%≤substrate protein remaining %≤80%) | 1000 to 1500 | O=C1CCN(N2Cc3cc(CBr)ccc3C2=O)C(=O)N1 [GT-05568, 1-(5-(bromomethyl)-1-oxoisoindolin-2-yl)dihydropyrimidine-2,4(1H, 3H)-dione] | B (80%<substrate protein remaining %≤100%) | A (0%≤substrate protein remaining %≤80%) | A (0%≤substrate protein remaining %≤80%) | A (0%≤substrate protein remaining %≤80%)
A (0%≤substrate protein remaining %≤80%) | A (0%≤substrate protein remaining %≤80%) | – | O=C1CCN(N2C(=O)c3ccc(N4C[C@@H]5C[C@H]4CN5)cc3C2=O)C(=O)N1 [GT-05582, 5-((1S, 4S)-2,5-diazabicyclo[2.2.1]heptan-2-yl)-2-(2,4-dioxotetrahydropyrimidin-1(2H)-yl)isoindoline-1,3-dione] | A (0%≤substrate protein remaining %≤80%) | A (0%≤substrate protein remaining %≤80%) | B (80%<substrate protein remaining %≤100%) | A (0%≤substrate protein remaining %≤80%)
A (0%≤substrate protein remaining %≤80%) | A (0%≤substrate protein remaining %≤80%) | – | O=C1CCN(N2C(=O)c3ccc(N4CCC(N5CCNCC5)C(F)(F)C4)cc3C2=O)C(=O)N1 (stereo not shown) [GT-04990, 5-(3,3-difluoro-4-(piperazin-1-yl)piperidin-1-yl)-2-(2,4-dioxotetrahydropyrimidin-1(2H)-yl)isoindoline-1,3-dione] | B (80%<substrate protein remaining %≤100%) | B (80%<substrate protein remaining %≤100%) | B (80%<substrate protein remaining %≤100%) | B (80%<substrate protein remaining %≤100%)

SMILES | Degradation of substrate protein WEE1 (substrate protein remaining %) (WEE1) | Degradation of substrate protein GSPT1 (substrate protein remaining %) (GSPT1) | IC50 [1] [nM] | Degradation of substrate protein IKZF2 (substrate protein remaining %) (IKZF2) | Degradation of substrate protein IKZF3 (substrate protein remaining %) (IKZF3) | Degradation of substrate protein IKZF1 (substrate protein remaining %) (IKZF1) | Degradation of substrate protein CK1α (substrate protein remaining %) (CK1α)
O=C1CCN(N2C(=O)c3ccc(CO)cc3C2=O)C(=O)N1 [GT-04536, 2-(2,4-dioxotetrahydropyrimidin-1(2H)-yl)-5-(hydroxymethyl)isoindoline-1,3-dione] | B (80%<substrate protein remaining %≤100%) | A (0%≤substrate protein remaining %≤80%) | – | B (80%<substrate protein remaining %≤100%) | B (80%<substrate protein remaining %≤100%) | B (80%<substrate protein remaining %≤100%) | B (80%<substrate protein remaining %≤100%)
